# Data: patent US20260285850A1, “SUBSTITUTED OXAZOLIDINONES AND IMIDAZOLINONES AS HERBICIDES” (FMC CORPORATION, priority 2023, published 2026)
# Experiments:
# Type in all cases: in vivo
# [1] = tested on: barnyardgrass (Echinochloa crus-galli); test: Test A preemergence soil spray, visual injury rating 0-100; conditions: 10 days, 0 = no effect, 100 = complete control
# In short: (§1)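 Plants in a loam and sand soil blend were treated with each test chemical, in a non-phytotoxic solvent system including surfactant, either sprayed on seeded soil before emergence or applied after emergence at the one- to two-leaf stage. Ten days later in the greenhouse, plants were compared with untreated controls and visually rated from 0 (no effect) to 100 (complete control).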
# [2] = tested on: blackgrass (Alopecurus myosuroides); test: as above; conditions: 10 days, 0 = no effect, 100 = complete control
# In short: as §1
# corn (Zea mays) [3] = test: as above; conditions: 10 days, 0 = no effect, 100 = complete control
# In short: as §1
# [4] = tested on: green foxtail (Setaria viridis); test: as above; conditions: 10 days, 0 = no effect, 100 = complete control
# In short: as §1
# kochia (Bassia scoparia) [5] = test: as above; conditions: 10 days, 0 = no effect, 100 = complete control
# In short: as §1
# [6] = tested on: oat, wild (wild oat, Avena fatua); test: as above; conditions: 10 days, 0 = no effect, 100 = complete control
# In short: as §1
# [7] = tested on: palmer (palmer amaranth, palmer pigweed, Amaranthus palmeri); test: as above; conditions: 10 days, 0 = no effect, 100 = complete control
# In short: as §1
# [8] = tested on: ragweed (common ragweed, Ambrosia artemisiifolia); test: as above; conditions: 10 days, 0 = no effect, 100 = complete control
# In short: as §1
# [9] = tested on: ryegrass, Italian (italian ryegrass, Lolium multiflorum); test: as above; conditions: 10 days, 0 = no effect, 100 = complete control
# In short: as §1
# soybean (Glycine max) [10] = test: as above; conditions: 10 days, 0 = no effect, 100 = complete control
# In short: as §1
# [11] = tested on: wheat (Triticum aestivum); test: as above; conditions: 10 days, 0 = no effect, 100 = complete control
# In short: as §1
# [12] = tested on: barnyardgrass (Echinochloa crus-galli); test: Test A postemergence application, visual injury rating 0-100; conditions: Postemergence, 10 days, 0 is no effect, 100 is complete control
# In short: as §1
# [13] = tested on: blackgrass (Alopecurus myosuroides); test: as above; conditions: Postemergence, 10 days, 0 is no effect, 100 is complete control
# In short: as §1
# corn (Zea mays) [14] = test: as above; conditions: Postemergence, 10 days, 0 is no effect, 100 is complete control
# In short: as §1
# [15] = tested on: galium (catchweed bedstraw, Galium aparine); test: as above; conditions: Postemergence, 10 days, 0 is no effect, 100 is complete control
# In short: as §1
# [16] = tested on: green foxtail (Setaria viridis); test: as above; conditions: Postemergence, 10 days, 0 is no effect, 100 is complete control
# In short: as §1
# [17] = tested on: horseweed (Erigeron canadensis); test: as above; conditions: Postemergence, 10 days, 0 is no effect, 100 is complete control
# In short: as §1
# kochia (Bassia scoparia) [18] = test: as above; conditions: Postemergence, 10 days, 0 is no effect, 100 is complete control
# In short: as §1
# [19] = tested on: oat, wild (wild oat, Avena fatua); test: as above; conditions: Postemergence, 10 days, 0 is no effect, 100 is complete control
# In short: as §1
# [20] = tested on: palmer (palmer amaranth, palmer pigweed, Amaranthus palmeri); test: as above; conditions: Postemergence, 10 days, 0 is no effect, 100 is complete control
# In short: as §1
# [21] = tested on: ragweed (common ragweed, Ambrosia artemisiifolia); test: as above; conditions: Postemergence, 10 days, 0 is no effect, 100 is complete control
# In short: as §1
# [22] = tested on: ryegrass, Italian (italian ryegrass, Lolium multiflorum); test: as above; conditions: Postemergence, 10 days, 0 is no effect, 100 is complete control
# In short: as §1
# soybean (Glycine max) [23] = test: as above; conditions: Postemergence, 10 days, 0 is no effect, 100 is complete control
# In short: as §1
# [24] = tested on: wheat (Triticum aestivum); test: as above; conditions: Postemergence, 10 days, 0 is no effect, 100 is complete control
# In short: as §1
# [25] = tested on: barnyardgrass (Echinochloa crusgalli); test: Test B flooded paddy test, visual plant response rating 0-100; conditions: 250 g ai/ha, Flood, applied to paddy water, evaluated after 13 days
# In short: (§2)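 Each species was raised to two leaves before flooding to a 3 cm depth and dosing the water with compound. Injury was assessed by eye after 13 days under greenhouse conditions.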
# [26] = tested on: ducksalad (Heteranthera limosa); test: as above; conditions: 250 g ai/ha, Flood, applied to paddy water, evaluated after 13 days
# In short: as §2
# rice (Oryza sativa) = test: as above; conditions: 250 g ai/ha, Flood, applied to paddy water, evaluated after 13 days
# In short: as §2
# [27] = tested on: sedge, umbrella (small-flower umbrella sedge, Cyperus difformis); test: as above; conditions: 250 g ai/ha, Flood, applied to paddy water, evaluated after 13 days
# In short: as §2
smiles,measurement,setting,value
CCOC(=O)C1C=CC(NC(=O)C2(C)CN(c3cc(Cl)cc(Cl)c3)C(=O)O2)C1 (stereo not shown) [Compound 44],Barnyardgrass plant response rating (0 to 100 scale),[1]; 125 g ai/ha,100
same,Barnyardgrass plant response rating (0 to 100 scale),[1]; 500 g ai/ha,100
same,Blackgrass plant response rating (0 to 100 scale),[2]; 125 g ai/ha,90
same,Blackgrass plant response rating (0 to 100 scale),[2]; 500 g ai/ha,100
same,Corn plant response rating (0 to 100 scale),corn (Zea mays) [3]; 125 g ai/ha,70
same,Corn plant response rating (0 to 100 scale),corn (Zea mays) [3]; 500 g ai/ha,90
same,"Foxtail, Green plant response rating (0 to 100 scale)",[4]; 125 g ai/ha,90
same,"Foxtail, Green plant response rating (0 to 100 scale)",[4]; 500 g ai/ha,100
same,Kochia plant response rating (0 to 100 scale),kochia (Bassia scoparia) [5]; 125 g ai/ha,100
same,Kochia plant response rating (0 to 100 scale),kochia (Bassia scoparia) [5]; 500 g ai/ha,100
same,"Oat, Wild plant response rating (0 to 100 scale)",[6]; 125 g ai/ha,80
same,"Oat, Wild plant response rating (0 to 100 scale)",[6]; 500 g ai/ha,90
same,"Amaranth, Palmer plant response rating (0 to 100 scale)",[7]; 125 g ai/ha,100
same,"Amaranth, Palmer plant response rating (0 to 100 scale)",[7]; 500 g ai/ha,100
same,Ragweed plant response rating (0 to 100 scale),[8]; 125 g ai/ha,10
same,Ragweed plant response rating (0 to 100 scale),[8]; 500 g ai/ha,60
same,"Ryegrass, Italian plant response rating (0 to 100 scale)",[9]; 125 g ai/ha,90
same,"Ryegrass, Italian plant response rating (0 to 100 scale)",[9]; 500 g ai/ha,100
same,Soybean plant response rating (0 to 100 scale),soybean (Glycine max) [10]; 125 g ai/ha,20
same,Soybean plant response rating (0 to 100 scale),soybean (Glycine max) [10]; 500 g ai/ha,70
same,Wheat plant response rating (0 to 100 scale),[11]; 125 g ai/ha,90
same,Wheat plant response rating (0 to 100 scale),[11]; 500 g ai/ha,90
same,Barnyardgrass plant response rating (0 to 100 scale),[12]; 125 g ai/ha,100
same,Barnyardgrass plant response rating (0 to 100 scale),[12]; 500 g ai/ha,100
same,Blackgrass plant response rating (0 to 100 scale),[13]; 125 g ai/ha,100
same,Blackgrass plant response rating (0 to 100 scale),[13]; 500 g ai/ha,100
same,Corn plant response rating (0 to 100 scale),corn (Zea mays) [14]; 125 g ai/ha,100
same,Corn plant response rating (0 to 100 scale),corn (Zea mays) [14]; 500 g ai/ha,100
same,Galium plant response rating (0 to 100 scale),[15]; 125 g ai/ha,70
same,Galium plant response rating (0 to 100 scale),[15]; 500 g ai/ha,70
same,"Foxtail, Green plant response rating (0 to 100 scale)",[16]; 125 g ai/ha,90
same,"Foxtail, Green plant response rating (0 to 100 scale)",[16]; 500 g ai/ha,90
same,Horseweed plant response rating (0 to 100 scale),[17]; 125 g ai/ha,90
same,Horseweed plant response rating (0 to 100 scale),[17]; 500 g ai/ha,90
same,Kochia plant response rating (0 to 100 scale),kochia (Bassia scoparia) [18]; 125 g ai/ha,80
same,Kochia plant response rating (0 to 100 scale),kochia (Bassia scoparia) [18]; 500 g ai/ha,80
same,"Oat, Wild plant response rating (0 to 100 scale)",[19]; 125 g ai/ha,90
same,"Oat, Wild plant response rating (0 to 100 scale)",[19]; 500 g ai/ha,90
same,"Amaranth, Palmer / Pigweed, Palmer plant response rating (0 to 100 scale)",[20]; 125 g ai/ha,100
same,"Amaranth, Palmer / Pigweed, Palmer plant response rating (0 to 100 scale)",[20]; 500 g ai/ha,100
same,Ragweed plant response rating (0 to 100 scale),[21]; 125 g ai/ha,70
same,Ragweed plant response rating (0 to 100 scale),[21]; 500 g ai/ha,80
same,"Ryegrass, Italian plant response rating (0 to 100 scale)",[22]; 125 g ai/ha,90
same,"Ryegrass, Italian plant response rating (0 to 100 scale)",[22]; 500 g ai/ha,80
same,Soybean plant response rating (0 to 100 scale),soybean (Glycine max) [23]; 125 g ai/ha,90
same,Soybean plant response rating (0 to 100 scale),soybean (Glycine max) [23]; 500 g ai/ha,80
same,Wheat plant response rating (0 to 100 scale),[24]; 125 g ai/ha,90
same,Wheat plant response rating (0 to 100 scale),[24]; 500 g ai/ha,90
same,"Plant response rating, Barnyardgrass (0 to 100 scale, 0 is no effect and 100 is complete control)",[25],80
same,"Plant response rating, Ducksalad (0 to 100 scale, 0 is no effect and 100 is complete control)",[26],90
same,"Plant response rating, Rice (0 to 100 scale, 0 is no effect and 100 is complete control)",rice (Oryza sativa),15
same,"Plant response rating, Sedge, Umbrella (0 to 100 scale, 0 is no effect and 100 is complete control)",[27],95
